Experimental findings from DBAASP are described below.

Test systems include Escherichia coli HB101; Sporothrix schenckii; Cryptococcus neoformans; Escherichia coli C25.
Common to all, as to assay: ≥ marks a high value that may be exact or a test limit, other limits are often not marked, values filed in µg/mL are converted to µM
Test [1] concerns Leishmania major MHOM/IL/67/JERICHO-II.
For test [2], the system named is Staphylococcus aureus Cowan 1.
The subject of test [3] is Pseudomonas aeruginosa ATCC BAA-427.
Test [4] concerns Staphylococcus aureus ATCC 700699.
For test [5], the system named is Staphylococcus aureus ATCC 25923.
Test [6] relates to Candida parapsilosis ATCC 22019.
In test [7] the test system is Staphylococcus aureus ATCC 29213.
Test [8] relates to Staphylococcus aureus ATCC BAA-44.
For test [9], the system named is Bacillus subtilis ATCC 6633.
For test [10], the system named is Staphylococcus aureus ATCC 700698.
Test [11] concerns Klebsiella pneumoniae ATCC 27736.
Test [12] relates to Candida albicans ATCC 10231.
The subject of test [13] is Escherichia coli ATCC 9637.
For test [14], the system named is Staphylococcus aureus ATCC 33592.

Values after ≈ are worked out from the molar mass of the structure shown.

Consider `CSCC[C@H](NC(=O)[C@@H](NC(=O)CNC(=O)[C@H](CC(C)C)NC(=O)[C@H](CCCCN)NC(=O)[C@H](CCCCN)NC(=O)[C@H](CC(C)C)NC(=O)[C@H](CCSC)NC(=O)[C@@H](NC(=O)[C@H](CCCCN)NC(=O)[C@H](Cc1c[nH]c2ccccc12)NC(=O)[C@H](CC(C)C)NC(=O)[C@H](C)N)[C@@H](C)O)[C@@H](C)O)C(N)=O` [ALWKTMLKKLGTM], for which the MIC (in test [1]; against Escherichia coli HB101; in test [2]) was not below 50.6 µM in each case.

Consider `CC[C@H](C)[C@H](NC(=O)[C@H](C)NC(=O)CNC(=O)[C@H](CCCCN)NC(=O)[C@@H](NC(=O)[C@H](CC(C)C)NC(=O)[C@H](Cc1c[nH]c2ccccc12)NC(=O)CNC(=O)[C@H](Cc1ccccc1)NC(=O)[C@@H](N)Cc1ccccc1)[C@@H](C)CC)C(=O)N[C@@H](Cc1cnc[nH]1)C(=O)N[C@@H](C)C(=O)N1CCC[C@H]1C(=O)N[C@@H](CCCCN)C(=O)N[C@@H](C)C(=O)N[C@H](C(=O)N[C@@H](Cc1cnc[nH]1)C(=O)N1CCC[C@H]1C(=O)N[C@@H](CC(C)C)C(=O)N[C@H](C(=O)N[C@@H](Cc1cnc[nH]1)C(=O)N[C@@H](CCCN=C(N)N)C(=O)N[C@@H](CCCN=C(N)N)C(=O)N[C@@H](CCCN=C(N)N)C(=O)N[C@@H](Cc1cnc[nH]1)C(=O)O)[C@@H](C)CC)[C@@H](C)CC` [FFGWLIKGAIHAPKAIHPLIHRRRH], for which the MIC in the test with Sporothrix schenckii was determined as 30 µM (≈ 89.2 µg/mL); in test [3] it was 13.6 µM (≈ 40.4 µg/mL); in [4], 3 µM (≈ 8.92 µg/mL); in [5], 3 µM (≈ 8.92 µg/mL); in test [6], 30 µM (≈ 89.2 µg/mL); in test [7], 3 µM (≈ 8.92 µg/mL). The minimal inhibitory concentration (MIC) was 3 µM (≈ 8.92 µg/mL) in test [8]; 3 µM (≈ 8.92 µg/mL) in [9]; 3 µM (≈ 8.92 µg/mL) in test [10]; 30 µM (≈ 89.2 µg/mL) in the test with Cryptococcus neoformans; 27.2 µM (≈ 80.9 µg/mL) in test [11]; more than 30 µM in [12]. Moreover, the MIC worked out at 6.8 µM (≈ 20.2 µg/mL) in [13] and 1.6 µM (≈ 4.76 µg/mL) in [14].

With `CC[C@H](C)[C@H](NC(=O)[C@H](Cc1ccc(O)cc1)NC(=O)[C@H](CCCN=C(N)N)NC(=O)[C@H](CCCN=C(N)N)NC(=O)[C@@H](N)CCCN=C(N)N)C(=O)NCC(=O)N[C@@H](CCCN=C(N)N)C(=O)N[C@@H](Cc1ccc(O)cc1)C(=O)N[C@H](C(=O)N[C@@H](CCCN=C(N)N)C(=O)N[C@@H](Cc1ccccc1)C(=O)N[C@@H](Cc1c[nH]c2ccccc12)C(=O)N[C@@H](CCCCN)C(N)=O)C(C)C` [RRRYIGRYVRFWK], the MIC came out at 8.4 µM (≈ 15.6 µg/mL) in test [5] and 2.1 µM (≈ 3.9 µg/mL) in the test on Escherichia coli C25.
